Reference: patent US5919796A, “Hydroximic acid derivatives, pharmaceutical compositions containing them, and processes for preparing the same” (BIOREX Kutato es Fejleszto Rt., priority 1994, dated 1999)
Structures can show the parent of a compound that is named as a salt.

Tests used:
sciatic and tibial nerve = experiment: Motor and sensory impulse conduction rate of nerves in STZ-induced diabetic rats (diabetic angiopathy complications); format: in vivo, male Cr:Wistar rats; details: for MCR correction (%): motor conduction rate; for SCR correction (%): sensory conduction rate
Protocol: Furthermore, the effect of the compounds of the invention in the treatment of complications associated with the diabetic angiopathy was studied. The in vivo action was measured on rats, by the change of rate of the impulse conduction in an STZ-induced diabetic state as follows.
The electrophysiological measurements were carried out on anaesthetized male Cr:Wistar rats at the end of a one-month period of treatment with 20 mg/kg administered orally (p.o.). The sciatic or tibial nerve, respectively, was excited by needle electrodes stitched near the nerve on the lower extremity and the electromyographic (EMG) responses of the plantar muscle were registered. Five EMG-s each were averaged and the results were stored in a computer. The latency periods of the motor and sensory components were measured. The rates of impulse conduction were calculated from the ratio of the distance between two sites of excitation to the differences of latency.

[1] = tested on: Reperfusion-induced arrhythmia; experiment: Reperfusion-induced arrhythmia (ventricular tachycardia and fibrillation, survival) in anaesthetized rats; format: in vivo, rat; details: 1 mg/kg i.v., 5 minutes before compressing the left-sided descending coronary artery; first 3 minutes of reperfusion
Protocol: The Reperfusion-induced arrhythmia [ventricular tachycardia (VI) and ventricular fibrillation (VF)] was studied on anaesthetized rats. Myocardial ischemia was elicited by compressing the left-sided descending coronary artery for 5 minutes and after the ceasing thereof, by a 10-minute reperfusion of the heart. ECG was continuously monitored, and the change of the mean duration of VT and VF under effect of the test compounds, as well as the survival, were measured in the first 3 minutes of reperfusion. The test compounds were administered in an intravenous (i.v.) dose of 1 mg/kg by 5 minutes before compressing the left-sided descending coronary artery.

[2] = tested on: thoracal aorta isolated from rabbit; experiment: Vasorelaxant effect in vitro on isolated thoracal aorta; details: Oryctolagus cuniculus
Source text: The vasorelaxant effect of the compounds was investigated in vitro on the thoracal aorta isolated from rabbit [Am. J. Physiol. 257, 1327-1333 (1989)].

[3] = 20 mg/kg p.o., one-month treatment

Structure (SMILES) | EC50 [2] [µM] | also measured
ClC(=NOCCCN1CCCCC1)c1cccnc1 [Example 2, N-(3-piperidinopropoxy)-3-pyridinecarboximodyl chloride dihydrochloride] | 27 | MCR correction (%) (sciatic and tibial nerve; [3]): 100%; SCR correction (%) (sciatic and tibial nerve; [3]): 100%; survival of experimental animals [1]: 100%
ClC(=NOCCN1CCCCC1)c1cccnc1 [Example 6, O-(2-piperidinoethyl)-3-pyridinehydroximoyl chloride hydrochloride] | 13 | 
N=C(N)NN [Reference drug, aminoguanidine, reference compound] |  | MCR correction (%) (sciatic and tibial nerve; 50 mg/kg of aminoguanidine): 40%; SCR correction (%) (sciatic and tibial nerve; 50 mg/kg of aminoguanidine): 45%
FC(F)(F)c1cccc(C(Cl)=NOCCCN2CCCCC2)c1 [Example 8, N-[3-(1-piperidinyl)propoxy]-3'-(trifluoromethyl)benzimidoylchloride hydrochloride] | 15 | 
Cl.O=[N+]([O-])c1cccc(C(Cl)=NOCCCN2CCCCC2)c1 [Example 7, O-(3-piperidinopropyl)-3-nitro-benzhydroximoyl chloride hydrochloride] | 6 | MCR correction (%) (sciatic and tibial nerve; [3]): 48%; SCR correction (%) (sciatic and tibial nerve; [3]): 64%; survival of experimental animals [1]: 100%
ClC(=NOCCCN1CCOCC1)c1cccnc1 [Example 5, O-(3-morpholinopropyl)-3-pyridinehydroximoyl chloride dihydrochloride] | 24 | 
CC(C)COCC(CN(Cc1ccccc1)c1ccccc1)N1CCCC1 (stereo not shown) [Ref, Bepridil, reference compound] | 83 | 
CCN(CC)CCCON=C(Cl)c1cccnc1 [Example 4, O-(3-diethylaminopropyl)-3-pyridinehydroximoyl chloride hydrochloride] | 82 | 
CN1CCN(CCCON=C(Cl)c2cccnc2)CC1 [Example 9, N-[3-(4-methylpiperazin-1-yl)-1-propoxy]-3-pyridinecarboximidoyl chloride trihydrochloride] | 76 | 
